One experiment deals with Prg4−/− synoviocytes. Put plainly: Cytokine-induced Prg4−/− synoviocyte proliferation. In kind it is cell-based, mice. Particulars: p<0.001. On the procedure:
rhPRG4 binding to CD44 and competition with high molecular weight hyaluronic acid (HMW HA) was evaluated using a direct enzyme linked immunosorbent assay (ELISA) and surface plasmon resonance. Sialidase-A and O-glycosidase digestion of rhPRG4 was performed and CD44 binding was evaluated using ELISA. Rheumatoid arthritis fibroblast-like synoviocytes (RA-FLS) were stimulated with interleukin-1 beta (IL-1β) or tumor necrosis factor alpha (TNF-α) for 48 hours in the presence or absence of rhPRG4 or HMW HA at 20, 40 and 80 μg/mL and cell proliferation was measured. CD44 contribution was assessed by co-incubation with an anti-CD44 antibody (IM7). The anti-proliferative effect of rhPRG4 was investigated following treatment of Prg4−/− synoviocytes with IL-1β or TNF-α in the presence or absence of IM7.
Synovial tissue was harvested from Prg4−/− and Prg4+/+ male mice (8-10 weeks old; 5-8 animals per genotype) and digested with pronase enzyme (2 mg/mL; Sigma Aldrich) in sterile HBSS buffer for 30 min at 37° C. with shaking. This was followed by digestion with type I collagenase (1 mg/mL; Sigma Aldrich) for 4 hours at 37° C. with shaking. The enzymatic reaction was stopped using DMEM+10% FBS. Cells were grown in DMEM+10% FBS and Prg4−/− synoviocytes were used between 2nd and 4th passages while Prg4+/+ synoviocytes were used in their second passage.

In a further experiment the test system is whole blood. Put plainly: Lubricin on TNF-α mediated inflammatory cytokine generation in whole blood. In kind it is cell-based, human. On the procedure: The effect of lubricin on TNF-α mediated inflammatory cytokine generation was studied using Biochip Array technology. Recombinant TNF-α was used as a trigger to generate inflammatory cytokines in whole blood. The effect of lubricin was studied on the TNF-α mediated generation of various cytokines. TNF-α alone at a concentration of […] was supplemented to the whole blood which was incubated for 60 minutes at 37° C. TNF-α was supplemented to whole blood in a 1:10 dilution. The modulatory effects of lubricin on TNF-α-mediated generation of various cytokines were studied by supplementing lubricin at 0.57 mg/mL in the whole blood immediately prior to addition of TNF-α. After 60 minutes plasma was obtained from centrifugation and analyzed for inflammatory cytokine using Randox Biochip arrays.

The target in the next experiment is T1, CD44 IgG1Fc (Homo sapiens, UniProt P16070).
T1 construct: purchased R & D systems
Put plainly: Surface plasmon resonance binding of rhPRG4 to CD44 and competition with HMW HA. Here is the method:
Binding of rhPRG4 to CD44-IgG1Fc was investigated using surface plasmon resonance (Biacore T100, GE Healthcare Lifesciences, NJ, USA). Series S chips were functionalized using the human antibody capture kit (GE Life Sciences) and either CD44-IgG1Fc or IgG1FC was allowed to bind to the surface of the functionalized chips in flow cell 1 (Fc1) and flow cell 2 (Fc2), respectively. rhPRG4 was injected at 30 μL/min for 8 min at concentrations of 300, 250, 200, 150, 100 and 50 μg/mL followed by a 10 min dissociation using 0.1M HEPES, 1.5M NaCl, 30 mM EDTA, and 0.5% P20 (GE Life Sciences). The surface of the chip was regenerated at the end of each cycle with 1 min pulse of 3M MgCl2. Each analyte concentration was injected in duplicate. The resulting curves were double referenced (i.e. Fc2-Fc1, followed by subtraction of the 0 μg/mL curve). The binding kinetics and binding affinity were determined by BiaEvaluation software, using 1:1 binding/conformational change model or by steady-state equilibrium, respectively. To study the competition between rhPRG4 and HMW HA in binding to CD44, rhPRG4 was injected at concentrations ranging between 0 and 300 μg/mL as described above. Following the end of dissociation phase, HMW HA was injected at 50 μg/mL (30 μL per min) for 1 min. […]

For the next experiment, the system named is whole citrated blood. Nature of the experiment: Lubricin alone, inflammatory cytokines in whole blood. In kind it is cell-based, human. The settings on record: lubricin 0.57 mg/mL, 60 minutes; versus saline control. Here is the method: Utilizing the same approach the effect of lubricin on the generation of inflammatory cytokines in whole blood was also studied using similar experimental settings. In these studies the effect of lubricin (0.57 mg/mL) was studied by supplementing it to the whole citrated blood drawn from the normal healthy volunteers. The samples were profiled for inflammatory cytokine levels along with a saline control in samples incubated for 60 minutes. Whole blood was centrifuged to obtain plasma which was profiled for various inflammatory cytokines using high sensitivity cytokine assay.

Experiment [1] deals with Rheumatoid arthritis fibroblast-like synoviocytes (RA-FLS). Put plainly: Cytokine-induced RA-FLS proliferation (MTS). In kind it is cell-based. Particulars: 48 hours, p<0.05. On the procedure:
Rheumatoid arthritis fibroblast-like synoviocytes (RA-FLS; Cell Applications, USA) between 3rd and 6th passages were used to conduct these experiments. In sterile 96 well plates, RA-FLS (5,000 cells per well in 80 μL) were cultured in DMEM supplemented with 1% FBS and 1 mM pyruvate and stimulated with recombinant human interleukin-1 beta (IL-1β; R & D systems) at 20 ng/mL or tumor necrosis factor alpha (TNF-α; R & D systems) at 5 ng/mL for 48 hours at 37° C. in the absence or presence of rhPRG4 or HMW HA at a final concentration of 20, 40 or 80 μg/mL. The total volume in each well was 200 μL. Cell proliferation, an indication of inflammation, was determined using the CellTiter 96 AQueous one solution cell proliferation assay (MTS; Promega, USA) and the 490 nm absorbance was determined. Data is presented as the number of fold change in 490 nm absorbance compared to untreated control RA-FLS. The data represents the average of 3 independent experiments with at least triplicate wells per treatment. To evaluate the contribution of CD44 to the effect of rhPRG4 or HMW HA, RA-FLS were stimulated with IL-1β or TNF-α as described above. Treatment with rhPRG4 or HMW HA was conducted to a final concentration of 80 μg/mL in the absence or presence of IM7 (Abcam, USA), a CD44 neutralizing antibody that recognizes a conserved epitope across all CD44 isoforms (Samson et al., Exp Eye Res, 2014; 127C:14-19), at a final dilution of 1:200. The total volume in each well was 200 μl. Cell proliferation across the experimental groups was determined as described above and data is presented as the number of fold change in 490 nm absorbance compared to untreated control RA-FLS. The data represents the average of 3 independent experiments with at least triplicate wells per treatment.

The record followed here is patent US11717557B2, “Use of PRG4 as an anti-inflammatory agent” (Lubris LLC, priority 2015, dated 2023).

For “rhPRG4: full-length recombinant human PRG4 (lubricin) glycoprotein produced by CHO-M cells (Lubris), Mr≅240 KDa”, in the experiment with Prg4−/− synoviocytes, the “IL-1β induced proliferation of Prg4−/− synoviocytes” value is on record as “significantly inhibited” and the “TNF-α induced proliferation of Prg4−/− synoviocytes” value was “significantly inhibited”. The “IL-6, IL-8, IL-10, VEGF, TNF-α, IL-1β and EGF” value in the experiment with whole blood (lubricin 0.57 mg/mL before TNF-α 100 mg/mL, 60 minutes at 37° C., versus TNF-α alone) is reported as “decrease”. In the experiment with whole blood (lubricin 0.57 mg/mL, versus TNF-α alone), the “decrease of the levels of cytokines” value was 10-100%. In the experiment on whole blood (lubricin 0.57 mg/mL, versus stimulation in the absence of lubricin), the “TNF-α stimulated IFN-γ and TNF-α” value was “most dramatic decrease”. The Kd in the experiment with CD44 IgG1Fc (immobilized CD44-IgG1Fc, based on a rhPRG4 molecular weight of 240 KDa, read-out: apparent Kd) is around 38 nM. Moreover, the “effect on binding of HMW HA to recombinant CD44” value with CD44 IgG1Fc (rhPRG4 0-300 μg/mL, then HMW HA 50 μg/mL, inverse relationship of binding signals) is “interfered with binding of HMW HA”. Moreover, in the experiment with whole citrated blood, the “VEGF, IL8, IL6 and IL10” value is given as “most prominent decrease”; the “production of IL-4, IL-6, IL-8, IL-10, VEGF, TNF-α, IL-1β, MCP-1 and EGF” value is “decrease”. Moreover, the “RA-FLS proliferation with IL-1β stimulation” value in experiment [1] (IL-1β 20 ng/mL, treatment 40 and 80 μg/mL) is “significantly suppressed”. Besides, the “RA-FLS proliferation with TNF-α stimulation” value in experiment [1] (TNF-α 5 ng/mL, treatment 20, 40 and 80 μg/mL) is given as “significantly suppressed”.
